Measurements: the supplement of paper PMC10307832

Key:
Test in all cases: relative viability (nuclei count vs DMSO), 5 days (fraction); higher = more cells survive
XMD13-2 + Trametinib = compound: C1CC1C(=O)NC2=NNC3=C2C=CC(=C3)C4=CC(=CC=C4)C(=O)NC5CC5 [XMD13-2] + CC(=O)Nc1cccc(-n2c(=O)n(C3CC3)c(=O)c3c(Nc4ccc(I)cc4F)n(C)c(=O)c(C)c32)c1 [Trametinib] (partner 0.02 µM)
Summary of the method: (§1)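 Dosing by pin tool came one day after lung cancer cell lines were seeded in 1536-well plates, using either one drug or a fixed anchor-drug dose plus five library-drug doses (not always all listed) in √10 steps. After 5 days, nuclei were counted on 4× images. Relative viability is treated-well nuclei count divided by vehicle-well nuclei count, and values are medians of duplicate plates.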

ALW-II-49-7 + Navitoclax = compound: Cc1ccc(C(=O)Nc2cccc(C(F)(F)F)c2)cc1Nc1cncc(C(N)=O)c1 [ALW-II-49-7] + CC1(C)CCC(c2ccc(Cl)cc2)=C(CN2CCN(c3ccc(C(=O)NS(=O)(=O)c4ccc(N[C@H](CCN5CCOCC5)CSc5ccccc5)c(S(=O)(=O)C(F)(F)F)c4)cc3)CC2)C1 [Navitoclax] (partner 0.5 µM)
Summary of the method: as §1

Dasatinib + Pictilisib = compound: Cc1nc(Nc2ncc(C(=O)Nc3c(C)cccc3Cl)s2)cc(N2CCN(CCO)CC2)n1 [Dasatinib] + CS(=O)(=O)N1CCN(Cc2cc3nc(-c4cccc5[nH]ncc45)nc(N4CCOCC4)c3s2)CC1 [Pictilisib] (partner 1 µM)
Summary of the method: as §1

Dasatinib + Linsitinib = compound: Cc1nc(Nc2ncc(C(=O)Nc3c(C)cccc3Cl)s2)cc(N2CCN(CCO)CC2)n1 [Dasatinib] + C[C@]1(O)C[C@@H](c2nc(-c3ccc4ccc(-c5ccccc5)nc4c3)c3c(N)nccn32)C1 [Linsitinib] (partner 1 µM)
Summary of the method: as §1

| Cell Line | relative viability (XMD13-2 + Trametinib; first compound 0.05 µM) | relative viability (XMD13-2 + Trametinib; first compound 0.1581 µM) | relative viability (XMD13-2 + Trametinib; first compound 0.5 µM) | relative viability (XMD13-2 + Trametinib; first compound 1.581 µM) | relative viability (XMD13-2 + Trametinib; first compound 5 µM) | relative viability (ALW-II-49-7 + Navitoclax; first compound 0.08 µM) | relative viability (ALW-II-49-7 + Navitoclax; first compound 0.253 µM) | relative viability (ALW-II-49-7 + Navitoclax; first compound 0.8 µM) | relative viability (ALW-II-49-7 + Navitoclax; first compound 2.53 µM) | relative viability (ALW-II-49-7 + Navitoclax; first compound 8 µM) | relative viability (Dasatinib + Pictilisib; first compound 0.005 µM) | relative viability (Dasatinib + Pictilisib; first compound 0.01581 µM) | relative viability (Dasatinib + Pictilisib; first compound 0.05 µM) | relative viability (Dasatinib + Pictilisib; first compound 0.1581 µM) | relative viability (Dasatinib + Pictilisib; first compound 0.5 µM) | relative viability (Dasatinib + Linsitinib; first compound 0.005 µM) | relative viability (Dasatinib + Linsitinib; first compound 0.01581 µM) | relative viability (Dasatinib + Linsitinib; first compound 0.05 µM) | relative viability (Dasatinib + Linsitinib; first compound 0.1581 µM) | relative viability (Dasatinib + Linsitinib; first compound 0.5 µM) |
| --- | --- | --- | --- | --- | --- | --- | --- | --- | --- | --- | --- | --- | --- | --- | --- | --- | --- | --- | --- | --- |
| NCI-H1944 | 0.486 | 0.393 | 0.429 | 0.458 | 0.411 | 1.06 | 1.14 | 0.991 | 1.11 | 1.07 | 0.308 | 0.274 | 0.274 | 0.258 | 0.268 | 1.15 | 1.34 | 0.787 | 0.419 | 0.276 |
| NCI-H1975 | 0.27 | 0.327 | 0.375 | 0.358 | 0.382 | 1.06 | 1.05 | 0.993 | 0.919 | 0.998 | 0.315 | 0.225 | 0.207 | 0.0981 | 0.201 | 0.86 | 0.713 | 0.851 | 0.286 | 0.243 |
| NCI-H1993 | 0.563 | 0.504 | 0.508 | 0.507 | 0.539 | 0.85 | 0.927 | 0.904 | 0.785 | 1.08 | 0.923 | 0.682 | 0.723 | 0.776 | 0.866 | 0.61 | 0.756 | 0.675 | 0.629 | 0.597 |
| NCI-H2009 | 0.344 | 0.271 | 0.29 | 0.307 | 0.264 | 1.1 | 1.16 | 1.12 | 0.904 | 0.983 | 0.705 | 0.503 | 0.41 | 0.193 | 0.124 | 1.21 | 1.02 | 1.23 | 0.821 | 0.193 |
| NCI-H2023 | 0.621 | 0.54 | 0.555 | 0.561 | 0.633 | 0.925 | 1.1 | 1.03 | 1.01 | 1.02 | 0.21 | 0.142 | 0.202 | 0.173 | 0.151 | 0.439 | 0.384 | 0.426 | 0.329 | 0.188 |
| NCI-H2085 | 0.62 | 0.568 | 0.472 | 0.5 | 0.514 | 1.13 | 1.15 | 1.14 | 1.18 | 1.08 | 0.399 | 0.31 | 0.242 | 0.218 | 0.167 | 0.773 | 0.789 | 0.644 | 0.232 | 0.172 |
| NCI-H2087 | 0.194 | 0.196 | 0.198 | 0.198 | 0.23 | 1.12 | 0.937 | 0.838 | 0.907 | 0.949 | 0.952 | 1.01 | 1.17 | 0.737 | 0.494 | 0.929 | 0.772 | 1.04 | 0.862 | 0.469 |
| NCI-H2126 | 0.571 | 0.55 | 0.588 | 0.561 | 0.531 | 0.86 | 0.934 | 0.855 | 0.877 | 0.862 | 0.512 | 0.446 | 0.443 | 0.387 | 0.288 | 0.636 | 0.582 | 0.589 | 0.422 | 0.264 |
| NCI-H2228 | 0.672 | 0.577 | 0.517 | 0.602 | 0.634 | 1.4 | 0.809 | 0.628 | 0.838 | 0.84 | 0.361 | 0.289 | 0.273 | 0.215 | 0.212 | 0.629 | 0.593 | 0.649 | 0.326 | 0.215 |
| NCI-H2347 | 0.294 | 0.268 | 0.211 | 0.291 | 0.265 | 0.899 | 0.807 | 0.721 | 0.44 | 0.685 | 0.419 | 0.328 | 0.316 | 0.493 | 0.347 | 1.01 | 0.935 | 0.943 | 0.402 | 0.159 |
| NCI-H2405 | 0.73 | 0.656 | 0.628 | – | 0.65 | 0.761 | 0.974 | 0.779 | 0.241 | 0.735 | 0.353 | 0.294 | 0.261 | 0.197 | 0.16 | 0.699 | 0.392 | 0.336 | 0.253 | 0.167 |
| NCI-H3122 | 0.251 | 0.198 | 0.205 | 0.235 | 0.214 | 1.06 | 1.06 | 1.07 | 1.09 | 1.05 | 0.704 | 0.753 | 0.755 | 0.614 | 0.445 | 1.03 | 1.05 | 1.03 | 0.762 | 0.815 |
| PC-3 [JPC-3] | 0.681 | 0.721 | 0.737 | – | 0.778 | 0.693 | 0.891 | 0.757 | 0.816 | 0.82 | 0.881 | 0.676 | 0.734 | 0.706 | 0.317 | 0.976 | 0.97 | 1.07 | 1.06 | 0.633 |
| PC-14 | 0.892 | 0.713 | 0.788 | 0.723 | 0.983 | 1.04 | 0.92 | 0.923 | 0.911 | 0.86 | 0.631 | 0.458 | 0.529 | 0.232 | 0.0479 | 1 | 0.968 | 0.93 | 0.546 | 0.281 |
| RERF-LC-KJ | 0.984 | 0.83 | 0.889 | 0.8 | 0.782 | 0.876 | 1.27 | 0.938 | 1.05 | 0.866 | 0.543 | 0.518 | 0.53 | 0.398 | 0.403 | 0.896 | 0.845 | 0.862 | 0.67 | 0.634 |
| SK-LU-1 | 0.513 | 0.474 | 0.573 | 0.56 | 0.511 | 1.09 | 0.769 | 1.2 | 0.585 | 0.474 | 0.369 | 0.312 | 0.244 | 0.201 | 0.174 | 0.636 | 0.445 | 0.435 | 0.261 | 0.242 |
| SK-MES-1 | 0.576 | 0.532 | 0.508 | 0.508 | 0.58 | 1.03 | 1.34 | 1.15 | 0.961 | 0.647 | 0.329 | 0.287 | 0.242 | 0.165 | 0.16 | 1.11 | 1.08 | 0.937 | 0.412 | 0.219 |
| SW 1573 | 0.585 | 0.53 | 0.674 | 0.533 | 0.536 | 1.01 | 0.932 | 1.21 | 1.11 | 0.787 | 0.431 | 0.426 | 0.379 | 0.265 | 0.203 | 0.747 | 0.648 | 0.6 | 0.425 | 0.435 |
